Reference: ChEMBL document CHEMBL1201862, “PubChem BioAssay data set” (2004)
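The compound was tested at five concentrations on cells cultured in 96-well plates, with a 48-hour exposure period. GI50 = concentration required for 50% inhibition of growth.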 Activity calls are given as the source filed them. Cut-off read from the data, not from the text of the source: active = GI50 up to about 1.1 µM and inactive = higher.

Experiments:
Assay in all cases: inhibition of tumour cell growth, NCI panel, 48 h
OVCAR-5 = test system: OVCAR-5
MDA-N = test system: MDA-N
EKVX = test system: EKVX
Malme-3M = test system: Malme-3M
DU-145 = test system: DU-145
OVCAR-3 = test system: OVCAR-3
NCI-H460 = test system: NCI-H460
TK-10 = test system: TK-10
SNB-75 = test system: SNB-75
SF-295 = test system: SF-295
SN12C = test system: SN12C
HCT-116 = test system: HCT-116
NCI-H522 = test system: NCI-H522
Hs-578T = test system: Hs-578T
HOP-92 = test system: HOP-92
SR = test system: SR
M14 = test system: M14
SK-MEL-5 = test system: SK-MEL-5
MDA-MB-231 = test system: MDA-MB-231
SK-OV-3 = test system: SK-OV-3
HT-29 = test system: HT-29
SK-MEL-2 = test system: SK-MEL-2
HL-60 = test system: HL-60
PC-3 = test system: PC-3
T47D = test system: T47D
CCRF-CEM = test system: CCRF-CEM
MOLT-4 = test system: MOLT-4
RPMI-8226 = test system: RPMI-8226
CAKI-1 = test system: CAKI-1
K562 = test system: K562
LOX IMVI = test system: LOX IMVI
A549 = test system: A549
MDA-MB-435 = test system: MDA-MB-435
SNB-19 = test system: SNB-19
RXF 393 = test system: RXF 393
U-251 = test system: U-251
NCI-H226 = test system: NCI-H226
MCF7 = test system: MCF7
COLO 205 = test system: COLO 205
SK-MEL-28 = test system: SK-MEL-28
UACC-257 = test system: UACC-257
NCI-H23 = test system: NCI-H23
HCC 2998 = test system: HCC 2998
HOP-62 = test system: HOP-62
OVCAR-8 = test system: OVCAR-8
KM12 = test system: KM12
UACC-62 = test system: UACC-62
SW-620 = test system: SW-620
786-0 = test system: 786-0
ACHN = test system: ACHN
SF-539 = test system: SF-539
HCT-15 = test system: HCT-15
OVCAR-4 = test system: OVCAR-4
A498 = test system: A498
NCI/ADR-RES = test system: NCI/ADR-RES
SF-268 = test system: SF-268
IGROV-1 = test system: IGROV-1

In the case of `CN1CCC(O)(OC(=O)C(c2ccccc2)C2(O)CCCC2)CC1` (configuration not stated), the GI50 (OVCAR-5) is reported as > 100 µM (inactive), the GI50 (MDA-N) is reported as > 100 µM (inactive) and the GI50 (EKVX) is reported as > 100 µM (inactive). For the same molecule, the GI50 (Malme-3M) was > 100 µM (inactive), the GI50 (DU-145) was > 100 µM (inactive) and the GI50 (OVCAR-3) was > 100 µM (inactive). For the same molecule, the GI50 (NCI-H460) was > 100 µM (inactive), the GI50 (TK-10) was > 100 µM (inactive) and the GI50 (SNB-75) was > 100 µM (inactive). The GI50 (SF-295) was > 100 µM (inactive), the GI50 (SN12C) was > 100 µM (inactive) and the GI50 (HCT-116) was > 100 µM (inactive). For the same molecule, the GI50 (NCI-H522) was > 100 µM (inactive), the GI50 (Hs-578T) was > 100 µM (inactive) and the GI50 (HOP-92) was > 100 µM (inactive). For the same molecule, the GI50 (SR) was > 100 µM (inactive), the GI50 (M14) was > 100 µM (inactive) and the GI50 (SK-MEL-5) was > 100 µM (inactive). For the same molecule, the GI50 (MDA-MB-231) was > 100 µM (inactive), the GI50 (SK-OV-3) was > 100 µM (inactive) and the GI50 (HT-29) was > 100 µM (inactive). For the same molecule, the GI50 (SK-MEL-2) was > 100 µM (inactive), the GI50 (HL-60) was > 100 µM (inactive) and the GI50 (PC-3) was > 100 µM (inactive). For the same molecule, the GI50 (T47D) was > 100 µM (inactive), the GI50 (CCRF-CEM) was > 100 µM (inactive) and the GI50 (MOLT-4) was > 100 µM (inactive). For the same molecule, the GI50 (RPMI-8226) was > 100 µM (inactive), the GI50 (CAKI-1) was > 100 µM (inactive) and the GI50 (K562) was > 100 µM (inactive). For the same molecule, the GI50 (LOX IMVI) was > 100 µM (inactive), the GI50 (A549) was > 100 µM (inactive) and the GI50 (MDA-MB-435) was > 100 µM (inactive). For the same molecule, the GI50 (SNB-19) was > 100 µM (inactive), the GI50 (RXF 393) was > 100 µM (inactive) and the GI50 (U-251) was > 100 µM (inactive). For the same molecule, the GI50 (NCI-H226) was > 100 µM (inactive), the GI50 (MCF7) was > 100 µM (inactive) and the GI50 (COLO 205) was > 100 µM (inactive). For the same molecule, the GI50 (SK-MEL-28) was > 100 µM (inactive), the GI50 (UACC-257) was > 100 µM (inactive) and the GI50 (NCI-H23) was > 100 µM (inactive). For the same molecule, the GI50 (HCC 2998) was > 100 µM (inactive), the GI50 (HOP-62) was > 100 µM (inactive) and the GI50 (OVCAR-8) was > 100 µM (inactive). For the same molecule, the GI50 (KM12) was > 100 µM (inactive), the GI50 (UACC-62) was > 100 µM (inactive) and the GI50 (SW-620) was > 100 µM (inactive). For the same molecule, the GI50 (786-0) was > 100 µM (inactive), the GI50 (ACHN) was > 100 µM (inactive) and the GI50 (SF-539) was > 100 µM (inactive). For the same molecule, the GI50 (HCT-15) was over 100 µM, the GI50 (OVCAR-4) was > 100 µM (inactive) and the GI50 (A498) was > 100 µM (inactive). The GI50 (NCI/ADR-RES) was > 100 µM (inactive), the GI50 (SF-268) was > 100 µM (inactive) and the GI50 (IGROV-1) was > 100 µM (inactive).
